Measurements published in patent publication US9470680B2, “Fluorescence-based approach to monitor release factor-catalyzed termination of protein synthesis” (THE TRUSTEES OF COLUMBIA UNIVERSITY IN THE CITY OF NEW YORK, priority 2011, dated 2016).

Legend:
[1] = tested on: polypeptide release at a stop codon; conditions: cited from earlier work
[2] = tested on: RC2 (release complex with L1(Cy5) ribosomes and (Cy3)tRNAPhe); test: L1-tRNA smFRET monitoring the GS1/GS2 equilibrium; assay type: biochemical, Escherichia coli
Protocol: RCs assembled on a biotinylated mRNA were immobilized on the surface of a streptavidin-derivatized quartz flow cell and visualized with single-molecule resolution using a total internal reflection fluorescence microscope. RC surface immobilization strategy and lab-built total internal reflection fluorescence (TIRF) microscope are described in FIG. 10. Experiments were performed at room temperature in Tris-polymix buffer at 15 mM Mg(OAc)2, supplemented with an oxygen-scavenging system (300 μg ml^−1 glucose oxidase, 40 μg ml^−1 catalase and 1% (w/v)(β-D-glucose). In addition, 1 mM 1,3,5,7-cyclooctatetraene (Aldrich) and p-nitrobenzyl alcohol (Fluka) was added to all buffers in order to quench a long-lived, non-fluorescent triplet state sampled by the Cy5 fluorophore. The oxygen-scavenging and triplet state quencher systems have no effect on the in vitro translation system used herein (Gonzalez et al. 2007; Blanchard et al. 2004b).
(§1) Quartz microscope slides were cleaned and subsequently derivatized with a mixture of polyethyleneglycol (PEG) and PEG-biotin in order to passivate the surface (Blanchard et al. 2004b). Just prior to data acquisition, slides were treated with streptavidin, allowing immobilization of ribosomal RCs bound to an mRNA with a 3′-biotinylated DNA oligonucleotide pre-annealed to its 5′ end. smFRET data was collected with a wide-field, prism-based total internal reflection fluorescence microscope utilizing a 150 mW diode-pumped 532 nm laser (CrystaLaser) operating at 24 mW for Cy3 excitation, a 25 mW diode-pumped 643 nm laser (CrystaLaser) operating at 19 mW for direct Cy5 excitation, a Dual-View multi-channel imaging system (MAG Biosystems) for separation of Cy3 and Cy5 fluorescence emissions, and a back-thinned charge-coupled device camera (Cascade II, Princeton Instruments) with 2-pixel binning and 50 ms exposure time for detection. Single ribosomal RCs were identified by characteristic single-fluorophore fluorescence intensities as well as single-step fluorophore photobleaching.
Raw intensity data was analyzed with the Metamorph software suite (Molecular Devices). […] For L1-tRNA smFRET experiments with RC2, excited Cy5 was directly with the 643 nm laser in frame one, followed by excitation with the 532 nm laser in order to generate FRET. […] Acquired trajectories composed of a pair of Cy3 and Cy5 intensity versus time trajectories from single ribosomes, were then visually inspected. […] For all RRF and RF3(GDPNP) datasets, an automated selection algorithm was first utilized before visual inspection of the trajectories. This algorithm averages each trajectory over three data points, differentiates intensity with respect to time, and calculates the correlation coefficient for each Cy3/Cy5 pair. Trajectories with a negative correlation coefficient (anti-correlated) were kept for further analysis. Finally, all trajectories were required to last at least 0.5 seconds (i.e. 10 frames) before photobleaching of either fluorophore.
Cy3 and Cy5 fluorescence intensities were baseline corrected in each trajectory by generating one-dimensional Cy3 and Cy5 fluorescence intensity histograms from trajectories within each dataset, determining the intensity value of the most populated bin (which represents background noise intensity after fluorophore photobleaching), and then subtracting this value from all Cy3 and Cy5 intensity data points within every trajectory. Due to the imperfect performance of emission filters, the Cy3 signal bleed-through into the Cy5 channel was experimentally determined to be ˜9%. The Cy5 intensity of each trajectory was corrected using this bleed-through coefficient. smFRET values for each Cy3/Cy5 data point were calculated using ICy5/(ICy3+ICy5), where ICy3 and ICy5 are the intensities of Cy3 and Cy5, respectively.
The rates of GS1→GS2 (kGS1→GS2) and G52→GS1 (kGS2→GS1) transitions for each dataset were determined as follows. […]

RF1-bound RCs = test: RF3 activity assay (RF3-catalyzed RF1 recycling, multiple-turnover peptide release); assay type: biochemical, Escherichia coli; conditions: limiting RF1; GDP, GTP or GDPNP; 10 minutes
Protocol: RF3 activity was tested by following the extent of peptide release in cases where RF1 was limiting and RF3 was required to actively recycle RF1, thereby enabling multiple turnover (Zavialov et al. 2001). Reactions were performed as described, with two exceptions: when present, GDP, GTP, or GDPNP was added to the RF1/RF3 mix during the 1 minute pre-incubation, and upon adding the RF1/RF3/nucleotide mix to RCs, reactions were incubated for 10 minutes.

[3] = molecular target: GS2 conformation of the PoTC (RC2Pmn); test: RRF titration, binding isotherm fit of GS2/GS1 peak area ratio; set-up: species or system Escherichia coli
Description: (§2) To more quantitatively probe the subtle effect of RRF on the GS1⇄GS2 equilibrium, one-dimensional smFRET histograms of the entire population of trajectories were plotted as a function of RRF concentration (FIG. 24). The areas under the peaks centered at 0.16 and 0.76 FRET report the equilibrium populations of GS1 and GS2, respectively. […] Assuming that RRF can bind to both GS1 and GS2, a plot of the GS2/GS1 peak area ratio (Keq) vs. RRF concentration can be fit by the following binding isotherm in order to determine the equilibrium dissociation constants for RRF binding to GS1 (Kd,GS1) and GS2 (Kd,GS2) (Sarkar et al. 2007):
(§3) [formula] where C is the GS2/GS1 peak area ratio in the absence of RRF.

[4] = molecular target: GS1 conformation of the PoTC (RC2Pmn); test: as above; set-up: species or system Escherichia coli
Description: as §2, §3

vacant ribosomes = conditions: in the absence of mRNA or tRNAs; read-out: Kd of RRF binding to vacant ribosomes; cited from earlier work
[5] = tested on: RC1 (release complex, fMet-Phe-(Cy3)tRNAPhe in the P site, stop codon at the A site); test: RF1-tRNA smFRET between P-site (Cy3)tRNAPhe and (Cy5)RF1 bound at the A site; assay type: binding, Escherichia coli; conditions: UAA-U stop codon, in the presence of paromomycin (100 μM per FIG. 11)
Description: RCs assembled on a biotinylated mRNA were immobilized on the surface of a streptavidin-derivatized quartz flow cell and visualized with single-molecule resolution using a total internal reflection fluorescence microscope. RC surface immobilization strategy and lab-built total internal reflection fluorescence (TIRF) microscope are described in FIG. 10. […]
as §1, with “Single ribosomal RCs were identified by characteristic single-fluorophore fluorescence intensities as well as single-step fluorophore photobleaching.” left out
Raw intensity data was analyzed with the Metamorph software suite (Molecular Devices). […]

[6] = RC2 pre-treated with puromycin (RC2Pmn), no factors, corrected rate
[7] = RC2Pmn in the presence of 1 μM factor
[8] = RC2RF1 in the presence of 1 μM RF1, RF3(GDP) and 1 mM GTP
[9] = RC2RF1 in the presence of 1 μM RF1 and 1 μM RF3 form, no GTP
[10] = RC2Pmn, 0-1.5 μM RRF (near Kd,GS2)

NC[C@@H]1O[C@H](O[C@H]2[C@@H](O)[C@H](O[C@@H]3[C@@H](O)[C@H](N)C[C@H](N)[C@H]3O[C@H]3O[C@H](CO)[C@@H](O)[C@H](O)[C@H]3N)O[C@@H]2CO)[C@H](N)[C@@H](O)[C@@H]1O [paromomycin]
inhibition of polypeptide release at a stop codon [1]: very strongly inhibits polypeptide release at a stop codon

COc1ccc(C[C@H](N)C(=O)N[C@H]2[C@@H](O)[C@H](n3cnc4c(N(C)C)ncnc43)O[C@@H]2CO)cc1 [puromycin, reference compound]
trajectories fluctuating between 0.16 and 0.76 FRET ([2]; RC2 pre-treated with puromycin (RC2Pmn), no factors): ~63% | kGS1→GS2 [2, 6]: 0.52 ± 0.03 s⁻¹ | kGS2→GS1 [2, 6]: 1.36 ± 0.03 s⁻¹

RF1: Escherichia coli class 1 release factor 1, purified, co-expressed with PrmC methyltransferase
trajectories fluctuating between 0.16 and 0.76 FRET [2, 7]: 9% | trajectories stably centered at / sampling only 0.16 FRET (GS1) [2, 7]: 85% | trajectories stably centered at / sampling only 0.76 FRET (GS2) [2, 7]: 6% | trajectories fluctuating between 0.16 and 0.76 FRET ([2]; RC2 in the presence of 1 μM factor): 2% | trajectories stably centered at 0.16 FRET (GS1) ([2]; RC2 in the presence of 1 μM factor (87% without RF1)): 98%

RF3(GDP): RF3 in the GDP form
kGS2→GS1 relative to RC2Pmn in the absence of RF1, RF3 and guanine nucleotide ([2]; RC2RF1+RF3(GDP)+GTP versus 1.36±0.03 s^−1): ~3 fold | kGS2→GS1 ([2]; RC2RF1+RF3(GDP)+GTP, 1 μM RF1, 10 μM GDP and 1 mM GTP, corrected rate, lower limit): ≥ 3.7 ± 0.6 s⁻¹ | trajectories exhibiting fluctuations between GS1 and GS2 [2, 8]: 42% | trajectories stably centered at 0.16 FRET (GS1) [2, 8]: 58% | trajectories fluctuating between 0.16 and 0.76 FRET [2, 9]: 2% | trajectories stably centered at 0.16 FRET (GS1) [2, 9]: 98%

RF3(GDPNP): RF3 with GDPNP, a non-hydrolyzable GTP analog
trajectories fluctuating between 0.16 and 0.76 FRET [2, 7]: 22% | trajectories stably centered at / sampling only 0.16 FRET (GS1) [2, 7]: 5% | trajectories stably centered at / sampling only 0.76 FRET (GS2) [2, 7]: 73%

RF3: Escherichia coli class II release factor, a GTPase
nucleotide dependence of RF3-catalyzed RF1 recycling (RF1-bound RCs): exhibits the proper nucleotide dependence in recycling RF1

RRF: Escherichia coli ribosome recycling factor
Kd ([3]; RC2Pmn + RRF titration): 0.9 ± 0.3 µM | binding to GS2 over GS1 ([3]; from Kd,GS2 and Kd,GS1): greater than an order of magnitude tighter binding to GS2 over GS1 | Kd [4]: 12 ± 2 µM | Kd (vacant ribosomes): 0.2 to 0.6 µM | kGS1→GS2 relative to free RC2Pmn ([2]; 50 μM RRF versus 0.52±0.03 s^−1): 1.6 fold | trajectories fluctuating between 0.16 and 0.76 FRET [2, 7]: 70% | trajectories stably centered at / sampling only 0.16 FRET (GS1) [2, 7]: 7% | trajectories stably centered at / sampling only 0.76 FRET (GS2) [2, 7]: 23% | kGS1→GS2 as a function of RRF concentration [2, 10]: remain unchanged | kGS2→GS1 as a function of RRF concentration [2, 10]: decreases linearly | kGS1→GS2 ([2]; RC2Pmn, 50 μM RRF): 0.83 ± 0.06 s⁻¹

S192C: single-cysteine S192C RF1 (PVT domain) labeled with Cy5
lifetime of the FRET state (dwell time analysis) [5]: < 0.38 ± 0.02 s

nucleotide-free RF3: RF3 without guanine nucleotide
trajectories fluctuating between 0.16 and 0.76 FRET [2, 9]: 1% | trajectories stably centered at 0.16 FRET (GS1) [2, 9]: 99%
